This passage reports IC50 results from patent US20240148821A1, “PHARMACEUTICAL USE OF CYCLIC PEPTIDE COMPOUND” (CHUGAI SEIYAKU KABUSHIKI KAISHA, priority 2021, published 2024).

Bridge positions count the residues as written; N and C are the ends. Square brackets hold non-standard residues; d marks the D form. Peptide text beside a SMILES is read from it. * marks the point of attachment. hPhe(3-Cl-4-CF3) = N[C@@H](CCc1ccc(C(F)(F)F)c(Cl)c1)C(=O)O; NMePhe(4-Cl) = CN[C@@H](Cc1ccc(Cl)cc1)C(=O)O; NMeNle(6-CHF2) = CN[C@@H](CCCCC(F)F)C(=O)O; NMeMet(O2) = CN[C@@H](CCS(C)(=O)=O)C(=O)O; NMeCha = CN[C@@H](CC1CCCCC1)C(=O)O; Ala(cPr) = N[C@@H](CC1CC1)C(=O)O; NMeChg = CN[C@H](C(=O)O)C1CCCCC1; NMeI = CC[C@H](C)[C@H](NC)C(=O)O; NMeD = CN[C@@H](CC(=O)O)C(=O)O; NMeL = CN[C@@H](CC(C)C)C(=O)O; Ahp(2) = CCCCC[C@H](N)C(=O)O; NMeV = CN[C@H](C(=O)O)C(C)C; NMeS = CN[C@@H](CO)C(=O)O; NMeA = CN[C@@H](C)C(=O)O; Piperidide = C1CCN(*)CC1; Ac5c = NC1(C(=O)O)CCCC1; Aze = O=C(O)[C@@H]1CCN1; Sar = CNCC(=O)O; Propyl = CCC* Some results are limits rather than exact numbers.

The target of experiment [1] is protein-protein interaction between Kras and SOS1 (biotin-tagged human Kras loaded with GDP, His-tagged human SOS1) (Homo sapiens (Human), UniProt P01116, G12D). Put plainly: Protein-protein interaction inhibition between Kras and SOS1 (KrasG12D-SOS PPI) using AlphaScreen.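 Further: kras produced in E. coli, Ni-coupled donor beads and streptavidin acceptor beads, excitation 680 nm with emission detected at 520–620 nm via singlet oxygen transfer.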 The settings on record: AlphaScreen; biotin-tagged human Kras loaded with GDP, His-tagged human SOS1; read-out: KRAS G12D-SOS PPI IC50. It is filed as biochemical. For orientation: Bead proximity is the source of the signal in Alpha formats.

Experiment [2] relates to Human pancreatic cancer cell line AsPC-1 (G12D mutation Kras). The experiment is described as follows: AsPC-1 cell growth inhibition (AsPC-1 CGI). It is filed as cell-based. The note with it: read-out: AsPC-1 cell growth inhibition, 50% growth inhibitory concentration (IC50 value); 96 hours, CellTiter-Glo, values classified in ranges.
Procedure: Test compounds were serially dilated with dimethyl sulfoxide, and 200 nL was then dispensed to a U-bottom 96-well plate using Labcyte Echo. […] The cell suspension was dispensed to a. plate containing a test compound at 100 μL per well and incubated at 37° C. in a 5% carbon dioxide gas incubator. 96 hours later, 80 μL of CellTiter-Glo (Promega) was added to each well and fluorescence was measured.

As for `CCCOC[C@H]1C(=O)NC2(CCCC2)C(=O)N(C)[C@@H](C2CCCCC2)C(=O)N(C)[C@H](C(=O)N2CCCCC2)CC(=O)N(C)[C@@H](CC(C)C)C(=O)N[C@@H]([C@@H](C)CC)C(=O)N(C)CC(=O)N(C)CC(=O)N(C)[C@@H](CC2CCCCC2)C(=O)N(C)CC(=O)N[C@@H](CCc2ccc(C(F)(F)F)c(Cl)c2)C(=O)N1C` [Compound 692] ([NMeL]I[Sar][Sar][NMeCha][Sar][hPhe(3-Cl-4-CF3)][NMeS](Propyl)[Ac5c][NMeChg][NMeD]-Piperidide; lactam N-11), the IC50 in experiment [1] was 6.9 nM; in experiment [2] it was greater than 500 nM.
Taken in the same sequence, the figures for `CC[C@H](C)[C@@H]1NC(=O)[C@H](CCS(C)(=O)=O)N(C)C(=O)C[C@@H](C(=O)N2CCCCC2)N(C)C(=O)[C@H](C(C)C)N(C)C(=O)C2(CCCC2)NC(=O)[C@@H]2CCCN2C(=O)[C@H](CCc2ccc(C(F)(F)F)c(Cl)c2)NC(=O)CN(C)C(=O)[C@H](CC2CCCCC2)N(C)C(=O)[C@@H]2CCN2C(=O)[C@H](C)N(C)C1=O` [Compound 419] ([NMeMet(O2)]I[NMeA][Aze][NMeCha][Sar][hPhe(3-Cl-4-CF3)]P[Ac5c][NMeV][NMeD]-Piperidide; lactam N-11) were 2.4 nM and greater than 500 nM.
In the case of `CCCCC[C@@H]1NC(=O)[C@H](CC(C)C)N(C)C(=O)C[C@@H](C(=O)N2CCCCC2)N(C)C(=O)[C@H](C(C)C)N(C)C(=O)C2(CCCC2)NC(=O)[C@@H]2CCCN2C(=O)[C@H](CCc2ccc(C(F)(F)F)c(Cl)c2)NC(=O)CN(C)C(=O)[C@H](CC2CCCCC2)N(C)C(=O)[C@@H]2CCN2C(=O)[C@H](C)N(C)C1=O` [Compound 1826] ([NMeL][Ahp(2)][NMeA][Aze][NMeCha][Sar][hPhe(3-Cl-4-CF3)]P[Ac5c][NMeV][NMeD]-Piperidide; lactam N-11), the IC50 is 99 nM in experiment [1] and greater than 500 nM in experiment [2].
As to `CC[C@H](C)[C@@H]1NC(=O)[C@H](CC(C)C)N(C)C(=O)C[C@@H](C(=O)N2CCCCC2)N(C)C(=O)[C@H](C2CCCCC2)N(C)C(=O)C2(CCCC2)NC(=O)[C@H](CCCCC(F)F)N(C)C(=O)[C@H](CCc2ccc(C(F)(F)F)c(Cl)c2)NC(=O)CN(C)C(=O)[C@H](CC2CCCCC2)N(C)C(=O)CN(C)C(=O)CN(C)C1=O` [Compound 796] ([NMeL]I[Sar][Sar][NMeCha][Sar][hPhe(3-Cl-4-CF3)][NMeNle(6-CHF2)][Ac5c][NMeChg][NMeD]-Piperidide; lactam N-11), the IC50 in experiment [1] was 9.3 nM; in experiment [2] it was greater than 500 nM.
On the same counts, the results for `CC(C)C[C@H]1C(=O)N[C@@H](CC2CC2)C(=O)N(C)[C@@H](C)C(=O)N2CC[C@H]2C(=O)N(C)[C@@H](CC2CCCCC2)C(=O)N(C)CC(=O)N[C@@H](CCc2ccc(C(F)(F)F)c(Cl)c2)C(=O)N2CCC[C@H]2C(=O)NC2(CCCC2)C(=O)N(C)[C@@H](C(C)C)C(=O)N(C)[C@H](C(=O)N2CCCCC2)CC(=O)N1C` [Compound 358] ([NMeL][Ala(cPr)][NMeA][Aze][NMeCha][Sar][hPhe(3-Cl-4-CF3)]P[Ac5c][NMeV][NMeD]-Piperidide; lactam N-11) are 33 nM and greater than 500 nM.
Taken in the same sequence, the figures for `CC[C@H](C)[C@@H]1NC(=O)[C@H](CC(C)C)N(C)C(=O)C[C@@H](C(=O)N2CCCCC2)N(C)C(=O)[C@H]([C@@H](C)CC)N(C)C(=O)C2(CCCC2)NC(=O)[C@@H]2CCCN2C(=O)[C@H](CCc2ccc(C(F)(F)F)c(Cl)c2)NC(=O)CN(C)C(=O)[C@H](Cc2ccc(Cl)cc2)N(C)C(=O)[C@@H]2CCN2C(=O)[C@H](C)N(C)C1=O` [Compound 253] ([NMeL]I[NMeA][Aze][NMePhe(4-Cl)][Sar][hPhe(3-Cl-4-CF3)]P[Ac5c][NMeI][NMeD]-Piperidide; lactam N-11) were 0.99 nM and no more than 20 nM.
